The values below come from patent US20130059879A1, “Small Molecule Inhibitors of PFKFB3 and Glycolytic Flux and Their Methods of Use as Anti-Cancer Therapeutics” (UNIVERSITY OF LOUISVILLE RESEARCH FOUNDATION, INC., priority 2010, published 2013).

In one data set the test system is Calu-6. The experiment in a line: Cancer cell proliferation, Alamar Blue assay, 72 hours. It is filed as cell-based. The settings on record: Homo sapiens, Calu-6. In a few lines:
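Calu-6 human cancer cells were seeded at 2×10^5 cells/ml in 96 well plates. The next day, an equal volume of media containing the compounds at twice the intended concentration was added. After 72 hours of exposure, inhibition of proliferation was measured with the Alamar Blue assay, run in triplicate, and IC50 values were determined.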
(In general: Resazurin is reduced to fluorescent resorufin, in cell work by metabolically active cells.)

Another data set relates to HCT-116. Described as above. To be noted: Homo sapiens, HCT-116. In kind it is cell-based.
A further data set has as its system Jurkat. The description is as above. In kind it is cell-based. The settings on record: Homo sapiens, Jurkat. In a few lines: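 This Alamar Blue assay measured the ability of compounds to kill or inhibit proliferation of Jurkat cancer cells. Cells seeded in 96 well plates at 2×10^5 cells/ml received compounds the following day, added at twice the indicated concentration in an equal volume of media. Exposure lasted 72 hours, and IC50 values were derived from triplicate experiments.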

A further data set has as its system MDA-MB-231. Described as above. It is filed as cell-based. To be noted: Homo sapiens.
The test system of a further data set is NCI-H82. The description is as above. In kind it is cell-based. The settings on record: Homo sapiens, NCI-H82, read-out: IC50 NCl-H82. Summed up:
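This cell-based assay measured whether compounds kill or inhibit growth of NCI-H82 tumor cells, using Alamar Blue as the readout. Plating was at 2×10^5 cells/ml in 96 well plates. Compounds, prepared at double the final concentration, were added next day in the same volume of medium. Exposure lasted 72 hours, and each experiment was run in triplicate.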

Another data set concerns U937. Described as above. The settings on record: Homo sapiens, U-937. In kind it is cell-based.
The target in a further data set is T1, PFKFB3 (Homo sapiens, UniProt Q16875).
T1 construct: GST
The experiment in a line: Inhibition of recombinant PFKFB3 kinase activity (ADP Glow assay). In kind it is biochemical. The settings on record: 250 nM analog concentration; read-out: % Inhibition of PFKFB3 Enzymatic Activity. As for the experimental part:
PFKFB3 was prepared by expression in E. coli and purified by GST column and column chromatography. […] The recombinant protein was pure and active as determined by the results of a kinase activity assay commercially available (such as ADP Glow® assay, […]). The same assay was used to determine the inhibition of the protein and the results are shown in Table 5 below (IC50 values or percent inhibition at a fixed concentration). Results confirmed that the compounds of the invention have low nanomolar IC50 values, interacting with PFKFB3 and inhibiting its enzymatic activity.
(ADP-Glo first removes unused ATP, then detects ADP through luciferase.)

Data set [1] can be described thus: Microsomal stability in human liver microsomes. In kind it is in vitro ADME. Background: Microsomes from liver hold many membrane-bound enzymes, among them those of drug oxidation.
The nature of data set [2]: Cell permeability in Caco2 monolayers. It is filed as in vitro ADME. The settings on record: human, Caco-2, Caco2 cells, pH 7.4. From the text: The determination of the permeability in Caco2 or MDR1-MDCK cells is widely used when screening compounds to assess cell permeability, intestinal drug transport and predict absorption rates and to ascertain if a compound might be a Pgp substrate and have cross the blood brain barrier. […] Comparison of the apical to basal (A-B) and basal to apical (B-A) values show if a compound is actively effluxed out the cells and if it is a Pgp substrate. […] Briefly, cell permeability and transport mechanisms in Caco-2 and MDR1-MDCK monolayers experiments were performed in triplicate in the apical-to-basolateral and basolateral-to-apical direction using Transwell wells containing either Caco-2 or MDR1-MDCK monolayers. A modified Hanks buffer pH 7.4 was used in both reservoir and receiver wells with the addition of 1% BSA in the receiver side. Confluent monolayers were used and their integrity was verified using reference compounds (Atenolol as a low permeability reference compound and Propanolol as a high permeability reference compound). A sample in the basolateral and apical sides was taken after 2 hours and the concentration measured by LC/MS-MS.

A short description of a further data set: Pharmacokinetics in mice. It is filed as in vivo, Balbc mice. As to the method: The pharmacokinetic parameters for several compounds were determined in mice following IV (intravenous), IP (intraperitoneal), or PO (per os) administration, as well as in rats and dogs. A typical study design includes six Balbc male mice 7 to 8 weeks old. For instance, a dose of 10 mg/kg was administered IV using a 5% DMS0/90% Captisol (20% in water) solution or other pharmaceutically acceptable parenteral and oral formulations. Blood samples were collected at different intervals. Plasma samples were extracted and analyzed using an LC-MS/MS method. Similar protocols were used for the rats (Sprague Dawley rats) or dogs (beagles) PK studies; in the case of dogs PK studies, the number of animals per group was three.
PFK-065 was dosed at 10 mg/kg in male Balbc mice; PFK-095 was dosed at 10 mg/kg in male Sprague Dawley rats; and PFK-112 dosed at 6 mg/kg in male beagle dogs.

Where [3] appears, read: mouse, plasma, IV 10 mg/kg, male Balbc mice.

T1 sequence (Q16875 whole entry, species assumed): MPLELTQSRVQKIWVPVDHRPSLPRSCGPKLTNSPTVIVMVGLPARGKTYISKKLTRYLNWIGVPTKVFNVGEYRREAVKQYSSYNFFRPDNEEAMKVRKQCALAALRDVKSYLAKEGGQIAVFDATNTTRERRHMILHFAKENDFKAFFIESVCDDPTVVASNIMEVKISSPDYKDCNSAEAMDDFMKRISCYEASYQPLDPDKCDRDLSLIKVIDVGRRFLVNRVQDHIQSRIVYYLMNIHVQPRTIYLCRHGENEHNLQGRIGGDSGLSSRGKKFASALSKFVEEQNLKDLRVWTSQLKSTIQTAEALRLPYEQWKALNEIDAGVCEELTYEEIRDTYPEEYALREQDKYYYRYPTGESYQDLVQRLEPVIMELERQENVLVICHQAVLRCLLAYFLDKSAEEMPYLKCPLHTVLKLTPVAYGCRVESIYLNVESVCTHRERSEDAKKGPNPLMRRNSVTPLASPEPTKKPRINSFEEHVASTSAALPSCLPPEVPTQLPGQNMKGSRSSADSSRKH

As usually defined, the IC50 is the midpoint of a concentration-inhibition curve. In general, inhibition refers to the relative decrease from the control value, in per cent. What is called Papp A→B is how fast a substance crosses the layer from the apical side. A word on the Papp B→A: it is the apparent permeability from the basolateral to the apical side of a cell layer. Usually AUC(0-inf) stands for total exposure, with the tail of the curve extrapolated. Read a low AUC(0-inf) as less exposure. By Cmax is commonly meant the highest concentration seen after dosing. For orientation: Vd means the apparent volume that relates the amount in the body to the concentration in plasma or blood. With `O=C(c1ccccc1)c1cc2c(ccc3ccccc32)[nH]1` [ACT-PFK-065, (3H-Benzo[e]indol-2-yl)-phenyl-methanone], the IC50 was found to be 267 nM in the data set with Calu-6; 1310 nM in the data set with HCT-116; 775 nM with Jurkat; 625 nM with MDA-MB-231; 283 nM in the data set on NCI-H82; 165 nM in the data set on U937. Further, the inhibition at 0.25 µM at PFKFB3 was found to be 13.5%. Moreover, the “HLM, Mean metabolized (%)” value in [1] (0 min) was 0.0%; in data set [1] (60 min incubation, 1.0 mg/ml microsomal protein, 1 mM NADPH, 37° C.) it was 93%. The compound further returned a Papp A→B at 2 h in [2] (apical to basal) of 10.3 ×10⁻⁶ cm/s. Moreover, in [2] (basal to apical), the Papp B→A at 2 h was determined as 5.9 ×10⁻⁶ cm/s. The compound further returned a T1/2b in “Pharmacokinetics in mice” (IV 10 mg/kg, male Balbc mice) of 2.1 h. The same compound gave an AUC(0-inf) in “Pharmacokinetics in mice” (setting [3]) of 2630 ng·h/mL. In “Pharmacokinetics in mice” (setting [3]), this compound showed a Cmax of 4110 ng/mL. In “Pharmacokinetics in mice” (setting [3]), this compound gave a Vd of 11.2 L/kg. In the data set “Pharmacokinetics in mice” (oral bioavailability, Balbc mice, PO 20 mg/kg vs IV 10 mg/kg), the “% F (from PO group)” value is recorded as 25%.
